From ChEMBL document CHEMBL1201862, “PubChem BioAssay data set” (2004)
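Each compound was tested at five concentrations against cells in 96-well plates for 48 hours. GI50 marks 50% less growth.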 Calls of active or inactive are those of the source. No stated cut-off is given here; in the data, active = GI50 up to about 1.1 µM and inactive = higher.

Key:
Test in all cases: DTP human tumour cell line panel, 48 h
UACC-257 = system: UACC-257
SNB-75 = system: SNB-75
OVCAR-3 = system: OVCAR-3
OVCAR-8 = system: OVCAR-8
RXF 393 = system: RXF 393
SK-MEL-5 = system: SK-MEL-5
KM12 = system: KM12
786-0 = system: 786-0
UO-31 = system: UO-31
NCI-H226 = system: NCI-H226
SF-295 = system: SF-295
COLO 205 = system: COLO 205
T47D = system: T47D
OVCAR-4 = system: OVCAR-4
HT-29 = system: HT-29
A498 = system: A498
SK-MEL-28 = system: SK-MEL-28
OVCAR-5 = system: OVCAR-5
RPMI-8226 = system: RPMI-8226
NCI-H23 = system: NCI-H23

Compound | GI50 (UACC-257) | GI50 (SNB-75) | GI50 (OVCAR-3) | GI50 (OVCAR-8) | GI50 (RXF 393) | GI50 (SK-MEL-5) | GI50 (KM12) | GI50 (786-0) | GI50 (UO-31) | GI50 (NCI-H226) | GI50 (SF-295) | GI50 (COLO 205) | GI50 (T47D) | GI50 (OVCAR-4) | GI50 (HT-29) | GI50 (A498) | GI50 (SK-MEL-28) | GI50 (OVCAR-5) | GI50 (RPMI-8226) | GI50 (NCI-H23)
Cc1cc(C)c(S(=O)(=O)N(CCCCCCN)OCCCON(CCCCCCN)S(=O)(=O)c2c(C)cc(C)cc2C)c(C)c1 | 1.69 µM (inactive) | 1.79 µM (inactive) | 1.76 µM (inactive) | 1.79 µM (inactive) | 1.7 µM (inactive) | 1.82 µM (inactive) | 1.9 µM (inactive) | 1.9 µM (inactive) | 2.06 µM (inactive) | 1.79 µM (inactive) | 1.82 µM (inactive) | 1.89 µM (inactive) | 1.91 µM (inactive) | 1.67 µM (inactive) | 1.66 µM (inactive) | 1.7 µM (inactive) | 1.83 µM (inactive) | 1.4 µM (inactive) | 2.43 µM (inactive) | 1.63 µM (inactive)
CCOC(=O)C1=C(C)NC(C)=C(C(=O)OCC)C1c1ccc(C)cc1 | 44.9 µM (inactive) | 24.8 µM (inactive) | 21.1 µM (inactive) | 28.1 µM (inactive) | 29.1 µM (inactive) | 18.8 µM (inactive) | 46.7 µM (inactive) | 20 µM (inactive) | 51.1 µM (inactive) | 35 µM (inactive) | 27.4 µM (inactive) | > 10 µM (inactive) | 39.9 µM (inactive) | 54.3 µM (inactive) | 27.8 µM (inactive) | 40.6 µM (inactive) | > 100 µM (inactive) | 41.6 µM (inactive) | 30.3 µM (inactive) | 34.5 µM (inactive)
CC1=CC[C@@]2(C)[C@@H]([C@@H]1C)[C@H]1CC[C@@H]3[C@@]4(C)CC[C@H](O)C(C)(C)[C@@H]4CC[C@@]3(C)[C@]1(C)C[C@@H]2O | 17.4 µM (inactive) | 30.3 µM (inactive) | 18.9 µM (inactive) | 14.1 µM (inactive) | 10.4 µM (inactive) | 13.7 µM (inactive) | 23.3 µM (inactive) | 12.4 µM (inactive) | > 100 µM (inactive) | 27.2 µM (inactive) | 13.2 µM (inactive) | 15 µM (inactive) | 23 µM (inactive) | 24.3 µM (inactive) | 11.6 µM (inactive) | > 20.7 µM (inactive) | 6.44 µM (inactive) | > 50.8 µM (inactive) | 9.23 µM (inactive) | 25.6 µM (inactive)
Cc1ccc(C2SCc3nc4ccccc4n32)cc1 (stereo not given) | 4.79 µM (inactive) | 0.0103 µM (active) | 4.72 µM (inactive) | 3.66 µM (inactive) | 1.98 µM (inactive) | 1.53 µM (inactive) | 1.51 µM (inactive) | 5.62 µM (inactive) | 5.36 µM (inactive) | 1.88 µM (inactive) | 2.19 µM (inactive) | 1.36 µM (inactive) | 10.3 µM (inactive) | 8.77 µM (inactive) | 2.47 µM (inactive) | 3.15 µM (inactive) | 6.62 µM (inactive) | 6.46 µM (inactive) | 5.31 µM (inactive) | 2.72 µM (inactive)
Nc1nc(N)nc(CCCCc2nc(N)nc(N)n2)n1 | > 100 µM (inactive) | > 100 µM (inactive) | > 100 µM (inactive) | > 100 µM (inactive) | > 100 µM (inactive) | > 100 µM (inactive) | > 100 µM (inactive) | > 100 µM (inactive) | > 100 µM (inactive) | > 100 µM (inactive) | > 100 µM (inactive) | > 100 µM (inactive) | > 100 µM (inactive) | > 100 µM (inactive) | > 100 µM (inactive) | > 100 µM (inactive) | > 100 µM (inactive) | > 100 µM (inactive) | > 100 µM (inactive) | > 100 µM (inactive)
S=C1Cc2c(-c3ccccc3)cc(-c3ccc(Cl)cc3)nc2-c2ccccc2N1 | 4.7 µM (inactive) | 0.951 µM (active) | 3.07 µM (inactive) | 0.982 µM (active) | 3.06 µM (inactive) | 3.47 µM (inactive) | 8.75 µM (inactive) | 1.08 µM (active) | 1.96 µM (inactive) | 2.9 µM (inactive) | 3.39 µM (inactive) | 5.57 µM (inactive) | 4.32 µM (inactive) | 0.42 µM (active) | 2.65 µM (inactive) | 1.62 µM (inactive) | 3.4 µM (inactive) | 7.45 µM (inactive) | > 100 µM (inactive) | 2.88 µM (inactive)
c1ccc(-c2cc3[nH]c4ccccc4[nH]c-3cc(-c3ccccc3)nn2)cc1 | > 100 µM (inactive) | 30.4 µM (inactive) | 22.7 µM (inactive) | 54.2 µM (inactive) | 76.9 µM (inactive) | 74.6 µM (inactive) | 46.9 µM (inactive) | 29.2 µM (inactive) | 21.3 µM (inactive) | 45.6 µM (inactive) | 24.4 µM (inactive) | > 100 µM (inactive) | > 100 µM (inactive) | 56.2 µM (inactive) | 50.9 µM (inactive) | 22.8 µM (inactive) | > 100 µM (inactive) | > 100 µM (inactive) | 88.1 µM (inactive) | > 100 µM (inactive)
NC(=O)C1=C(c2ccccc2)c2ccccc2C1=O | 13.6 µM (inactive) | 19.7 µM (inactive) | 11.8 µM (inactive) | 15.6 µM (inactive) | 19.7 µM (inactive) | 16.3 µM (inactive) | 16.1 µM (inactive) | 15.7 µM (inactive) | 18.8 µM (inactive) | 18.2 µM (inactive) | 23 µM (inactive) | 22 µM (inactive) | 19.1 µM (inactive) | 18.5 µM (inactive) | 16.6 µM (inactive) | 28 µM (inactive) | 20.1 µM (inactive) | 18.6 µM (inactive) | 14.6 µM (inactive) | 18.1 µM (inactive)
COc1cc(NS(C)(=O)=O)ccc1Nc1c2ccccc2nc2c1[nH]c1ccc(NC3OC(CO)C(O)C(O)C3O)cc12 (stereo not given) | 0.74 µM (active) | 0.0251 µM (active) | 0.538 µM (active) | 0.0504 µM (active) | 0.144 µM (active) | 0.0859 µM (active) | 0.207 µM (active) | 0.0246 µM (active) | 0.128 µM (active) | < 0.0181 µM (active) | < 0.0139 µM (active) | 0.26 µM (active) | 0.0327 µM (active) | 1.36 µM (inactive) | 0.159 µM (active) | 0.129 µM (active) | 0.122 µM (active) | 0.444 µM (active) | 0.0973 µM (active) | 0.0215 µM (active)
Cc1ccc2c(c1)C(C1Cc3cccc(C)c3C1=O)OC2=O (stereo not given) | > 100 µM (inactive) | 81.5 µM (inactive) | > 100 µM (inactive) | > 100 µM (inactive) | 22.4 µM (inactive) | 56.4 µM (inactive) | 96.2 µM (inactive) | > 100 µM (inactive) | > 100 µM (inactive) | 72.9 µM (inactive) | > 100 µM (inactive) | > 100 µM (inactive) | > 100 µM (inactive) | 75.3 µM (inactive) | > 100 µM (inactive) | 46.2 µM (inactive) | > 100 µM (inactive) | > 100 µM (inactive) | 30.3 µM (inactive) | > 100 µM (inactive)
COc1ccc2c(c1OC)OC[C@@H](C1=CC(=O)C=C(O)C1=O)C2 | 13 µM (inactive) | 9.62 µM (inactive) | 7.62 µM (inactive) | 19.1 µM (inactive) | 6.4 µM (inactive) | 12.5 µM (inactive) | 13 µM (inactive) | 5.38 µM (inactive) | 12.6 µM (inactive) | 19.6 µM (inactive) | 16.1 µM (inactive) | 21.3 µM (inactive) | 4.25 µM (inactive) | 5.53 µM (inactive) | 17.7 µM (inactive) | 15.3 µM (inactive) | 16.9 µM (inactive) | 18 µM (inactive) | 1.91 µM (inactive) | 16.5 µM (inactive)
CN(C)c1nc2n(CCO)ccnc-2c(=O)n1 | > 100 µM (inactive) | > 100 µM (inactive) | > 100 µM (inactive) | > 100 µM (inactive) | > 100 µM (inactive) | > 100 µM (inactive) | > 100 µM (inactive) | > 100 µM (inactive) | > 100 µM (inactive) | > 100 µM (inactive) | > 100 µM (inactive) | > 100 µM (inactive) | > 100 µM (inactive) | > 100 µM (inactive) | > 100 µM (inactive) | > 100 µM (inactive) | > 100 µM (inactive) | > 100 µM (inactive) | > 100 µM (inactive) | > 100 µM (inactive)
O=[N+]([O-])/C(C(Cl)=C(Cl)Cl)=C(/Sc1ccccc1)N1CCCCC1 | 54.2 µM (inactive) | > 100 µM (inactive) | > 63.7 µM (inactive) | > 58.2 µM (inactive) | 5.08 µM (inactive) | 24.5 µM (inactive) | > 100 µM (inactive) | 31.8 µM (inactive) | > 61.5 µM (inactive) | > 100 µM (inactive) | 43.1 µM (inactive) | > 100 µM (inactive) | 11.9 µM (inactive) | > 66.7 µM (inactive) | > 100 µM (inactive) | > 61.9 µM (inactive) | > 100 µM (inactive) | > 100 µM (inactive) | > 100 µM (inactive) | > 100 µM (inactive)
Cc1ccc(CNNC(=O)c2cc[n+]([BH2-]C#N)cc2)cc1 | > 100 µM (inactive) | 72.6 µM (inactive) | > 100 µM (inactive) | > 100 µM (inactive) | > 100 µM (inactive) | > 100 µM (inactive) | > 100 µM (inactive) | > 100 µM (inactive) | > 100 µM (inactive) | > 100 µM (inactive) | > 100 µM (inactive) | > 100 µM (inactive) | > 100 µM (inactive) | > 100 µM (inactive) | > 100 µM (inactive) | 15.6 µM (inactive) | > 100 µM (inactive) | > 100 µM (inactive) | > 100 µM (inactive) | > 100 µM (inactive)
